Source: publication PMC11620503 (Antimicrobial Agents and Chemotherapy, 2024)
In brackets after ≈: the same amount, converted by molar mass. Like-named read-outs stand apart in the source and are kept apart here.

What was measured:
Experiment in all cases: MIC, broth microdilution
[1] = test system: MEM-nonsusceptible Enterobacterales with metallo-carbapenemases; type: cell-based
[2] = test system: MBL-producing isolates (Enterobacterales); type: cell-based
[3] = test system: serine-carbapenemase-producing isolates (Enterobacterales); type: cell-based
[4] = test system: 55 isolates of A. baumannii; type: cell-based, Acinetobacter baumannii; conditions: Acinetobacter baumannii (55); for CLSI MIC interpretation I (intermediate) / CLSI MIC interpretation R (resistant) / CLSI MIC interpretation S (susceptible): CLSI breakpoints, marked c: breakpoints for β-lactam alone; for MIC50 / MIC90: fixed concentration (μg/mL) in label; for MIC50: read-out: MIC50; for MIC90: read-out: MIC90
96 P. aeruginosa = type: cell-based, Pseudomonas aeruginosa; conditions: Pseudomonas aeruginosa (96); for CLSI MIC interpretation I (intermediate) / CLSI MIC interpretation R (resistant) / CLSI MIC interpretation S (susceptible): CLSI breakpoints, marked c: breakpoints for β-lactam alone; for MIC50 / MIC90: fixed concentration (μg/mL) in label; for MIC50: read-out: MIC50; for MIC90: read-out: MIC90
[5] = test system: MEM-, imipenem/relebactam-, and ceftolozane/tazobactam-nonsusceptible P. aeruginosa; type: cell-based, Pseudomonas aeruginosa; conditions: for CLSI MIC interpretation I (intermediate) / CLSI MIC interpretation R (resistant) / CLSI MIC interpretation S (susceptible): marked c: breakpoints for β-lactam alone; for MIC50 / MIC90: Pseudomonas aeruginosa; for MIC50: read-out: MIC50; for MIC90: read-out: MIC90
[6] = test system: MEM-nonsusceptible Enterobacterales with serine-carbapenemases; type: cell-based
[7] = test system: MEM-nonsusceptible Enterobacterales; type: cell-based
[8] = test system: 207 Enterobacterales including carbapenem-resistant isolates; type: cell-based
[9] = Ceftolozane/tazobactam-nonsusceptible Pseudomonas aeruginosa (45), CLSI breakpoints
[10] = Imipenem/relebactam-nonsusceptible Pseudomonas aeruginosa (43), CLSI breakpoints
[11] = MEM-nonsusceptible Pseudomonas aeruginosa (76), CLSI breakpoints
[12] = Ceftolozane/tazobactam-nonsusceptible Pseudomonas aeruginosa (45), fixed concentration (μg/mL) in label
[13] = Imipenem/relebactam-nonsusceptible Pseudomonas aeruginosa (43), fixed concentration (μg/mL) in label
[14] = MEM-nonsusceptible Pseudomonas aeruginosa (76), fixed concentration (μg/mL) in label
[15] = MEM-nonsusceptible Enterobacterales with metallo-carbapenemases (55), cefiderocol 54 isolates, CLSI breakpoints, marked c: breakpoints for β-lactam alone, tigecycline: FDA breakpoints
[16] = Enterobacterales with metallo-carbapenemases (74), cefiderocol 73 isolates, CLSI breakpoints, marked c: breakpoints for β-lactam alone, tigecycline: FDA breakpoints
[17] = Enterobacterales with serine-carbapenemases (80), CLSI breakpoints, marked c: breakpoints for β-lactam alone, tigecycline: FDA breakpoints
[18] = MEM-nonsusceptible Enterobacterales with serine-carbapenemases (58), CLSI breakpoints, marked c: breakpoints for β-lactam alone, tigecycline: FDA breakpoints
[19] = MEM-nonsusceptible Enterobacterales (127), cefiderocol 126 isolates, CLSI breakpoints, marked c: breakpoints for β-lactam alone, tigecycline: FDA breakpoints
[20] = All Enterobacterales (207), cefiderocol 205 isolates, CLSI breakpoints, marked c: breakpoints for β-lactam alone, tigecycline: FDA breakpoints

## C[C@@H](O)[C@H]1C(=O)N2C(C(=O)O)=C(SCCN=CN)C[C@H]12 [Imipenem]
[1]
  CLSI MIC interpretation I (intermediate): 9.1%
  CLSI MIC interpretation R (resistant): 81.8%
  CLSI MIC interpretation S (susceptible): 9.1%
  MIC50: 16 µg/mL (≈ 53.4 µM)
  MIC90: > 32 µg/mL
[2]
  CLSI MIC interpretation I (intermediate): 9.5%
  CLSI MIC interpretation R (resistant): 70.3%
  CLSI MIC interpretation S (susceptible): 20.3%
  MIC50: 4 µg/mL (≈ 13.4 µM)
  MIC90: > 32 µg/mL
[3]
  CLSI MIC interpretation I (intermediate): 7.5%
  CLSI MIC interpretation R (resistant): 68.8%
  CLSI MIC interpretation S (susceptible): 23.8%
  MIC50: 8 µg/mL (≈ 26.7 µM)
  MIC90: > 32 µg/mL
[4]
  CLSI MIC interpretation I (intermediate): 3.6%
  CLSI MIC interpretation R (resistant): 87.3%
  CLSI MIC interpretation S (susceptible): 9.1%
  MIC50: 32 µg/mL (≈ 107 µM)
  MIC90: > 32 µg/mL
96 P. aeruginosa
  CLSI MIC interpretation I (intermediate): 3.1%
  CLSI MIC interpretation R (resistant): 83.3%
  CLSI MIC interpretation S (susceptible): 13.5%
  MIC50: 16 µg/mL (≈ 53.4 µM)
  MIC90: > 32 µg/mL
[5]; [9]
  CLSI MIC interpretation I (intermediate): 0%
  CLSI MIC interpretation R (resistant): 95.6%
  CLSI MIC interpretation S (susceptible): 4.4%
[5]; [10]
  CLSI MIC interpretation I (intermediate): 0%
  CLSI MIC interpretation R (resistant): 97.7%
  CLSI MIC interpretation S (susceptible): 2.3%
[5]; [11]
  CLSI MIC interpretation I (intermediate): 2.6%
  CLSI MIC interpretation R (resistant): 93.4%
  CLSI MIC interpretation S (susceptible): 3.9%
[5]; [12]
  MIC50: > 32 µg/mL
  MIC90: > 32 µg/mL
[5]; [13]
  MIC50: > 32 µg/mL
  MIC90: > 32 µg/mL
[5]; [14]
  MIC50: 32 µg/mL (≈ 107 µM)
  MIC90: > 32 µg/mL
[6]
  CLSI MIC interpretation I (intermediate): 10.3%
  CLSI MIC interpretation R (resistant): 84.5%
  CLSI MIC interpretation S (susceptible): 5.2%
  MIC50: 8 µg/mL (≈ 26.7 µM)
  MIC90: > 32 µg/mL
[7]
  CLSI MIC interpretation I (intermediate): 10.2%
  CLSI MIC interpretation R (resistant): 79.5%
  CLSI MIC interpretation S (susceptible): 10.2%
  MIC50: 8 µg/mL (≈ 26.7 µM)
  MIC90: > 32 µg/mL
[8]
  CLSI MIC interpretation I (intermediate): 7.7%
  CLSI MIC interpretation R (resistant): 55.6%
  CLSI MIC interpretation S (susceptible): 36.7%
  MIC50: 4 µg/mL (≈ 13.4 µM)
  MIC90: 32 µg/mL (≈ 107 µM)

## C[C@H]1COc2c(N3CCN(C)CC3)c(F)cc3c(=O)c(C(=O)O)cn1c23 [Levofloxacin]
[1]; [15]
  CLSI MIC interpretation I (intermediate): 5.5%
  CLSI MIC interpretation S (susceptible): 5.5%
[1]; MEM-nonsusceptible Enterobacterales with metallo-carbapenemases (55), cefiderocol 54 isolates, fixed concentration (μg/mL) in label, read-out: MIC50
  MIC50: 32 µg/mL (≈ 88.6 µM)
[1]; MEM-nonsusceptible Enterobacterales with metallo-carbapenemases (55), cefiderocol 54 isolates, fixed concentration (μg/mL) in label, read-out: MIC90
  MIC90: > 64 µg/mL
[2]; [16]
  CLSI MIC interpretation I (intermediate): 6.8%
  CLSI MIC interpretation R (resistant): 81.1%
  CLSI MIC interpretation S (susceptible): 12.2%
[2]; Enterobacterales with metallo-carbapenemases (74), cefiderocol 73 isolates, fixed concentration (μg/mL) in label, read-out: MIC50
  MIC50: 32 µg/mL (≈ 88.6 µM)
[2]; Enterobacterales with metallo-carbapenemases (74), cefiderocol 73 isolates, fixed concentration (μg/mL) in label, read-out: MIC90
  MIC90: > 64 µg/mL
[3]; [17]
  CLSI MIC interpretation I (intermediate): 1.3%
  CLSI MIC interpretation R (resistant): 71.3%
  CLSI MIC interpretation S (susceptible): 27.5%
[3]; Enterobacterales with serine-carbapenemases (80), fixed concentration (μg/mL) in label, read-out: MIC50
  MIC50: 16 µg/mL (≈ 44.3 µM)
[3]; Enterobacterales with serine-carbapenemases (80), fixed concentration (μg/mL) in label, read-out: MIC90
  MIC90: > 64 µg/mL
[4]
  CLSI MIC interpretation I (intermediate): 10.9%
  CLSI MIC interpretation R (resistant): 89.1%
  CLSI MIC interpretation S (susceptible): 0%
  MIC50: 16 µg/mL (≈ 44.3 µM)
  MIC90: 64 µg/mL (≈ 177 µM)
96 P. aeruginosa
  CLSI MIC interpretation I (intermediate): 4.2%
  CLSI MIC interpretation R (resistant): 81.3%
  CLSI MIC interpretation S (susceptible): 14.6%
  MIC50: 32 µg/mL (≈ 88.6 µM)
  MIC90: 64 µg/mL (≈ 177 µM)
[5]; I, intermediate (including susceptible dose-dependent), CLSI breakpoints, last subgroup of Table 2
  CLSI MIC interpretation (%) I: 2.2%
[5]; [10]
  CLSI MIC interpretation I (intermediate): 0%
  CLSI MIC interpretation R (resistant): 100%
  CLSI MIC interpretation S (susceptible): 0%
[5]; [11]
  CLSI MIC interpretation I (intermediate): 1.3%
  CLSI MIC interpretation R (resistant): 89.5%
  CLSI MIC interpretation S (susceptible): 9.2%
[5]; [13]
  MIC50: 32 µg/mL
  MIC90: > 64 µg/mL
[5]; [14]
  MIC50: 32 µg/mL (≈ 88.6 µM)
  MIC90: > 64 µg/mL
[5]; Table 2, broth microdilution
  MIC50: 32 µg/mL (≈ 88.6 µM)
  MIC90: 64 µg/mL (≈ 177 µM)
[5]; R, resistant, CLSI breakpoints, last subgroup of Table 2
  CLSI MIC interpretation (%) R: 91.1%
[5]; S, susceptible, CLSI breakpoints, last subgroup of Table 2
  CLSI MIC interpretation (%) S: 6.7%
[6]; [18]
  CLSI MIC interpretation I (intermediate): 0%
  CLSI MIC interpretation R (resistant): 75.9%
  CLSI MIC interpretation S (susceptible): 24.1%
[6]; MEM-nonsusceptible Enterobacterales with serine-carbapenemases (58), fixed concentration (μg/mL) in label, read-out: MIC50
  MIC50: 32 µg/mL (≈ 88.6 µM)
[6]; MEM-nonsusceptible Enterobacterales with serine-carbapenemases (58), fixed concentration (μg/mL) in label, read-out: MIC90
  MIC90: 64 µg/mL (≈ 177 µM)
[7]; [19]
  CLSI MIC interpretation I (intermediate): 2.4%
  CLSI MIC interpretation R (resistant): 79.5%
  CLSI MIC interpretation S (susceptible): 18.1%
[7]; MEM-nonsusceptible Enterobacterales (127), cefiderocol 126 isolates, fixed concentration (μg/mL) in label, read-out: MIC50
  MIC50: 32 µg/mL (≈ 88.6 µM)
[7]; MEM-nonsusceptible Enterobacterales (127), cefiderocol 126 isolates, fixed concentration (μg/mL) in label, read-out: MIC90
  MIC90: 64 µg/mL (≈ 177 µM)
[8]; [20]
  CLSI MIC interpretation I (intermediate): 3.9%
  CLSI MIC interpretation R (resistant): 72%
  CLSI MIC interpretation S (susceptible): 24.2%
[8]; read-out: MIC50
  MIC50: 16 µg/mL (≈ 44.3 µM)
[8]; read-out: MIC90
  MIC90: 64 µg/mL (≈ 177 µM)
